Source: patent US20210115018A1, “PIPERIDINE COMPOUNDS AS COVALENT MENIN INHIBITORS” (THE REGENTS OF THE UNIVERSITY OF MICHIGAN, priority 2018, published 2021)

Tested on: MV4-11
Test: 7-day proliferation assay (WST-8), cell growth inhibition
Type: cell-based
Conditions: MV4-11 cells, 7 days
Experimental: The effect of representative Compounds of the Disclosure on cell viability was determined in a 7-day proliferation assay. Cells were maintained in the appropriate culture medium with 10% FBS at 37° C. and an atmosphere of 5% CO2.
Cells were seeded in 96-well flat bottom (Corning COSTAR, Corning, NY, cat#3595) at a density of 2,000-3,000 cells/well in 100 μl of culture medium. Compounds were serially diluted in the appropriate medium, and […] the diluted compounds were added to the appropriate wells of the cell plate. After the addition of compounds, the cells were incubated at 37° C. in an atmosphere of 5% CO2 for 7 days. Cell viability was determined using the WST (2-(2-methoxy-4-nitrophenyl)-3-(4-nitrophenyl)-5-(2,4-disulfophenyl)-2H-tetrazolium, monosodium salt) Cell Counting-8 Kit (Dojindo Molecular Technologies, Inc., Rockville, Md.) according to the manufacturers' instructions.
WST-8 reagent was added to each well at a final concentration of 10% (v/v), and then the plates were incubated at 37° C. for 1-2 hours for color development. The absorbance was measured at 450 nm using a SPECTRAmax PLUS plate reader (Molecular Devices, Sunnyvale, Calif.). The readings were normalized to the DMSO-treated cells and the half maximal inhibitory concentration (IC50) was calculated by nonlinear regression (four parameters sigmoid fitted with variable slope, least squares fit, and no constraint) analysis using the GraphPad Prism 5 software (GraphPad Software, La Jolla, Calif.).

| SMILES | IC50 (Homo sapiens, MV4-11, 168 h) | IC50 |
| --- | --- | --- |
| C=CC(=O)Nc1cccc(S(=O)(=O)c2ccc(N3CC(CN4CCC([C@@](CN5CCC5)(c5cccc(F)c5)[C@H]5CCC[C@@H]5NC(=O)OC)CC4)C3)c(F)c2)c1 [compound 73] | < 10 nM | – |
| C=CC(=O)Nc1cc(S(=O)(=O)c2ccc(N3CC(CN4CCC([C@@](CN5CCC5)(c5cccc(F)c5)[C@H]5CCC[C@@H]5NC(=O)OC)CC4)C3)cc2)ccc1N(C)CCN(C)C [compound 74] | < 50 nM | – |
| C=CC(=O)N(C)c1cccc(S(=O)(=O)c2ccc(N3CC(CN4CCC([C@@](CN5CCC5)(c5cccc(F)c5)[C@H]5CCC[C@@H]5NC(=O)OC)CC4)C3)cc2)c1 [compound 77] | < 50 nM | – |
| C=CC(=O)Nc1cc(C(F)(F)F)cc(S(=O)(=O)c2ccc(N3CC(CN4CCC([C@@](CN5CCC5)(c5cccc(F)c5)[C@H]5CCC[C@@H]5NC(=O)OC)CC4)C3)cc2)c1 [compound 78] | < 10 nM | – |
| C=CC(=O)Nc1cncc(S(=O)(=O)c2ccc(N3CC(CN4CCC([C@@](CN5CCC5)(c5cccc(F)c5)[C@H]5CCC[C@@H]5NC(=O)OC)CC4)C3)cc2)c1 [compound 79] | < 50 nM | – |
| C=CC(=O)Nc1cc(S(=O)(=O)c2ccc(N3CC(CN4CCC([C@@](CN5CCC5)(c5cccc(F)c5)[C@H]5CCC[C@@H]5NC(=O)OC)CC4)C3)cc2)ccc1C(F)(F)F [compound 81] | < 50 nM | – |
| C=CC(=O)Nc1cncc(S(=O)(=O)c2ccc(N3CC(F)(CN4CCC([C@@](CN5CCC5)(c5cccc(F)c5)[C@H]5CCC[C@@H]5NC(=O)OC)CC4)C3)c(F)c2)c1 [compound 84] | < 50 nM | – |
| C=CC(=O)Nc1ccnc(S(=O)(=O)c2ccc(N3CC(F)(CN4CCC([C@@](CN5CCC5)(c5cccc(F)c5)[C@H]5CCC[C@@H]5NC(=O)OC)CC4)C3)c(F)c2)c1 [compound 87] | < 500 nM | – |
| C=CC(=O)Nc1cc(F)cc(S(=O)(=O)c2ccc(N3CC(F)(CN4CCC([C@@](CN5CCC5)(c5cccc(F)c5)[C@H]5CCC[C@@H]5NC(=O)OC)CC4)C3)c(F)c2)c1 [compound 89] | < 50 nM | – |
| C=CC(=O)Nc1cc(S(=O)(=O)c2ccc(N3CC(F)(CN4CCC([C@@](CN5CCC5)(c5cccc(F)c5)[C@H]5CCC[C@@H]5NC(=O)OC)CC4)C3)c(F)c2)ccc1F [compound 90] | < 50 nM | – |
| C=CC(=O)N1CC(S(=O)(=O)c2ccc(N3CC(F)(CN4CCC([C@@](CN5CCC5)(c5cccc(F)c5)[C@H]5CCC[C@@H]5NC(=O)OC)CC4)C3)c(F)c2)C1 [compound 93] | < 50 nM | – |
| COC(=O)N[C@H]1CCC[C@@H]1[C@](CN1CCC1)(c1cccc(F)c1)C1CCN(CC2(F)CN(c3ccc(S(=O)(=O)C4CN(C(=O)/C=C/CN(C)C)C4)cc3F)C2)CC1 [compound 96] | < 10 nM | – |
| C=CC(=O)Nc1cc(S(=O)(=O)c2ccc(N3CC(F)(CN4CCC([C@@](CN5CCC5)(c5cccc(F)c5)[C@H]5CCC[C@@H]5NC(=O)OC)CC4)C3)c(F)c2)ccc1C [compound 97] | < 10 nM | – |
| COC(=O)N[C@H]1CCC[C@@H]1[C@](CN1CCC1)(c1cccc(F)c1)C1CCN(CC2CN(c3ccc(S(=O)(=O)C4CN(C(=O)/C=C/CN5CCC(O)CC5)C4)cc3)C2)CC1 [compound 98] | < 10 nM | – |
| C#CC(=O)N1CC(S(=O)(=O)c2ccc(N3CC(F)(CN4CCC([C@@](CN5CCC5)(c5cccc(F)c5)[C@H]5CCC[C@@H]5NC(=O)OC)CC4)C3)c(F)c2)C1 [compound 101] | < 500 nM | – |
| C=CC(=O)Nc1cccc(S(=O)(=O)c2ccc(N3CC[C@@H](CN4CCC([C@@](CN5CCC5)(c5cccc(F)c5)[C@H]5CCC[C@@H]5NC(=O)OC)CC4)C3)cc2)c1 [compound 104] | < 100 nM | – |
| C=CC(=O)N1CCCC(S(=O)(=O)c2ccc(N3CC(F)(CN4CCC([C@@](CN5CCC5)(c5cccc(F)c5)[C@H]5CCC[C@@H]5NC(=O)OC)CC4)C3)c(F)c2)C1 (some centres unmarked) [compound 105] | < 50 nM | – |
| C=CC(=O)N1CCCC(S(=O)(=O)c2ccc(N3CC(F)(CN4CCC([C@@](CN5CCC5)(c5cccc(F)c5)[C@H]5CCC[C@@H]5NC(=O)OC)CC4)C3)c(F)c2)C1 (some centres unmarked) [compound 106] | – | < 50 nM |
| C=CC(=O)N1CCC(S(=O)(=O)c2ccc(N3CC(F)(CN4CCC([C@@](CN5CCC5)(c5cccc(F)c5)[C@H]5CCC[C@@H]5NC(=O)OC)CC4)C3)c(F)c2)C1 (some centres unmarked) [compound 107] | – | < 500 nM |
| C=CC(=O)N1CCC(S(=O)(=O)c2ccc(N3CC(F)(CN4CCC([C@@](CN5CCC5)(c5cccc(F)c5)[C@H]5CCC[C@@H]5NC(=O)OC)CC4)C3)c(F)c2)C1 (some centres unmarked) [compound 108] | – | < 100 nM |
| CC#CC(=O)N1CCCC(S(=O)(=O)c2ccc(N3CC(F)(CN4CCC([C@@](CN5CCC5)(c5cccc(F)c5)[C@H]5CCC[C@@H]5NC(=O)OC)CC4)C3)c(F)c2)C1 (some centres unmarked) [compound 109] | < 50 nM | – |

| SMILES | IC50 (Homo sapiens, MV4-11, 168 h) | IC50 |
| --- | --- | --- |
| COC(=O)N[C@H]1CCC[C@@H]1[C@](CN1CCC1)(c1cccc(F)c1)C1CCN(CC2(F)CN(c3ccc(S(=O)(=O)C4CCCN(C(=O)/C=C/CN5CCCCC5)C4)cc3F)C2)CC1 (some centres unmarked) [compound 110] | < 100 nM | – |
| C#CC(=O)N1CCCC(S(=O)(=O)c2ccc(N3CC(F)(CN4CCC([C@@](CN5CCC5)(c5cccc(F)c5)[C@H]5CCC[C@@H]5NC(=O)OC)CC4)C3)c(F)c2)C1 (some centres unmarked) [compound 111] | < 500 nM | – |
| C=CC(=O)N1CCCC(S(=O)(=O)c2ccc(N3CC(C)(CN4CCC([C@@](CN5CCC5)(c5cccc(F)c5)[C@H]5CCC[C@@H]5NC(=O)OC)CC4)C3)c(F)c2)C1 (some centres unmarked) [compound 113] | < 50 nM | – |
| CC#CC(=O)N1CCCC(S(=O)(=O)c2ccc(N3CC(F)(CN4CCC([C@@](CN5CCC5)(c5cccc(F)c5)[C@H]5CCC[C@@H]5NC(=O)OC)CC4)C3)c(F)c2)C1 (some centres unmarked) [compound 114] | – | < 50 nM |
| CC#CC(=O)N1CC[C@@H](S(=O)(=O)c2ccc(N3CC(F)(CN4CCC([C@@](CN5CCC5)(c5cccc(F)c5)[C@H]5CCC[C@@H]5NC(=O)OC)CC4)C3)c(F)c2)C1 [compound 115] | < 50 nM | – |
| CCOC(=O)/C=C/CNC(=O)c1cccc(S(=O)(=O)c2ccc(N3CC(F)(CN4CCC([C@@](CN5CCC5)(c5cccc(F)c5)[C@H]5CCC[C@@H]5NC(=O)OC)CC4)C3)cc2)c1 [compound 119] | < 100 nM | – |
| COC(=O)N[C@H]1CCC[C@@H]1[C@](CN1CCC1)(c1cccc(F)c1)C1CCN(CC2(F)CN(c3ccc(S(=O)(=O)c4cccc(C(=O)NC/C=C/S(C)(=O)=O)c4)cc3)C2)CC1 [compound 120] | < 10 nM | – |
| COC(=O)N[C@H]1CCC[C@@H]1[C@](CN1CCC1)(c1cccc(F)c1)C1CCN(CC2(F)CN(c3ccc(S(=O)(=O)C4CCCN(C(=O)C#CCO)C4)cc3F)C2)CC1 (some centres unmarked) [compound 121] | < 100 nM | – |
| COC(=O)N[C@H]1CCC[C@@H]1[C@](CN1CCC1)(c1cccc(F)c1)C1CCN(CC2(F)CN(c3ccc(S(=O)(=O)C4CCCN(C(=O)NC/C=C/S(C)(=O)=O)C4)cc3F)C2)CC1 (some centres unmarked) [compound 123] | < 10 nM | – |
| COC(=O)N[C@H]1CCC[C@@H]1[C@](CNC(C)=O)(c1cccc(F)c1)C1CCN(CC2CN(c3ccc(S(=O)(=O)C4CN(C(=O)/C=C/CN5CCCCC5)C4)cc3)C2)CC1 [compound 129] | < 10 nM | – |
| CC#CC(=O)N1CC(S(=O)(=O)c2ccc(N3CC(CN4CCC([C@@](CNC(C)=O)(c5cccc(F)c5)[C@H]5CCC[C@@H]5NC(=O)OC)CC4)C3)cc2)C1 [compound 130] | < 10 nM | – |
| C=CC(=O)N1CCCC(S(=O)(=O)c2ccc(N3CC(F)(CN4CCC([C@@](CNC(C)=O)(c5cccc(F)c5)[C@H]5CCC[C@@H]5NC(=O)OC)CC4)C3)cc2)C1 (some centres unmarked) [compound 149] | < 500 nM | – |
| CC#CC(=O)N1CC(S(=O)(=O)c2ccc(N3CC(CN4CCC([C@@](CNC(C)=O)(c5cccc(F)c5)[C@H]5CCC[C@@H]5NC(=O)OC)CC4)C3)cc2CN2CC(F)C2)C1 [compound 164] | < 10 nM | – |
| CC#CC(=O)N1CC(S(=O)(=O)c2ccc(N3CC(F)(CN4CCC([C@@](CNC(C)=O)(c5cccc(F)c5)[C@H]5CCC[C@@H]5NC(=O)OC)CC4)C3)cc2CN2CC(F)C2)C1 [compound 178] | < 50 nM | – |
| C=CC(=O)N1CCOC[C@@H](S(=O)(=O)c2ccc(N3CC(F)(CN4CCC([C@@](CNC(=O)OC)(c5cccc(F)c5)[C@H]5CCC[C@@H]5NC(=O)OC)CC4)C3)c(F)c2)C1 [compound 180] | < 100 nM | – |
| CC#CC(=O)N1CCC[C@H](S(=O)(=O)c2ccc(N3CC(F)(CN4CCC([C@@](CN5CCC5)(c5cccc(F)c5)[C@H]5CCC[C@@H]5NC(=O)OC)CC4)C3)c(F)c2)C1 [compound 192] | < 10 nM | – |
| CC#CC(=O)N1CC[C@H](S(=O)(=O)c2ccc(N3CC(F)(CN4CCC([C@@](CN5CCC5)(c5cccc(F)c5)[C@H]5CCC[C@@H]5NC(=O)OC)CC4)C3)c(F)c2)C1 [compound 194] | < 500 nM | – |
| C=CC(=O)N1CCC[C@@H](S(=O)(=O)c2ccc(N3CC(O)(CN4CCC([C@@](CN5CCC5)(c5cccc(F)c5)[C@H]5CCC[C@@H]5NC(=O)OC)CC4)C3)cc2)C1 [compound 195] | < 10 nM | – |
| C=CC(=O)N1CCC[C@@H](S(=O)(=O)c2ccc(N3CC(CF)(CN4CCC([C@@](CN5CCC5)(c5cccc(F)c5)[C@H]5CCC[C@@H]5NC(=O)OC)CC4)C3)cc2)C1 [compound 196] | < 100 nM | – |
| C=CC(=O)N1CCC[C@@H](S(=O)(=O)c2ccc(N3CC(CN4CCC([C@@](CN5CCC5)(c5cccc(F)c5)[C@H]5CCC[C@@H]5NC(=O)OC)CC4)C3)cc2)C1 [compound 197] | < 10 nM | – |
